Results as given in ChEMBL document CHEMBL1156873 (Bioorg Med Chem Lett, 2010).
Calls of active or inactive are those of the source. No cut-off for these calls is given here.

Experiments:
LNCaP = assay: Cytotoxicity against human LNCAP cells; format: functional, cell-based
[1] = Half life in nude mouse microsomes; format: ADME, Microsome
[2] = Half life in human microsomes; format: ADME, Microsome
Mus musculus [3] = assay: Inhibition of mTOR in nude mouse bearing human MDA-MB-361 cells assessed as reduction of phosphorylated S6K (T389) level at 25 mg/kg, iv after 8 hrs; format: functional, organism-based; design: dose 25 mg/kg
Mus musculus [4] = assay: Inhibition of mTOR in nude mouse bearing human MDA-MB-361 cells assessed as reduction of phosphorylated AKT (S473) level at 25 mg/kg, iv after 8 hrs; format: functional, organism-based; design: dose 25 mg/kg
Mus musculus [5] = assay: Inhibition of mTOR in nude mouse bearing human MDA-MB-361 cells assessed as reduction of phosphorylated S6 (S240/244) level at 25 mg/kg, iv after 8 hrs; format: functional, organism-based; design: dose 25 mg/kg
MDA-MB-361 [6] = assay: Antitumor activity against human MDA-MB-361 cells xenografted in nude mouse assessed as inhibition of tumor growth at 10 mg/kg, po daily once for 5 days measured up to 17 days; format: functional, organism-based; design: dose 10 mg/kg
MDA-MB-361 [7] = assay: Antitumor activity against human MDA-MB-361 cells xenografted in nude mouse assessed as inhibition of tumor growth at 20 mg/kg, po daily once for 5 days measured up to 17 days; format: functional, organism-based; design: dose 20 mg/kg
Mus musculus [8] = assay: Toxicity in nude mouse assessed as body weight change at 10 mg/kg, po daily once for 5 days; format: organism-based; design: dose 10 mg/kg, route oral; conditions: in vivo, 120 h
Mus musculus [9] = assay: Toxicity in nude mouse assessed as body weight change at 20 mg/kg, po daily once for 5 days; format: organism-based; design: dose 20 mg/kg, route oral; conditions: in vivo, 120 h
[10] = target: Serine/threonine-protein kinase mTOR (Homo sapiens, UniProt P42345); assay: Inhibition of mTOR

Row | Compound | IC50 (LNCaP) | half-life [1] | half-life [2] | IC50 [10] | also measured
1 | CNC(=O)Nc1ccc(-c2nc(N3CC4CCC(C3)O4)c3cnn(C4CCC5(CC4)OCCCO5)c3n2)cc1 | 8 nM | > 30 min | > 30 min | – | –
2 | CCNC(=O)Nc1ccc(-c2nc(N3CC4CCC(C3)O4)c3cnn(C4CCC5(CC4)OCCO5)c3n2)cc1 | 1 nM | 27 min | 10 min | – | –
3 | CNC(=O)Nc1ccc(-c2nc(N3CC4CCC(C3)O4)c3cnn(C4CCC5(CC4)OCCO5)c3n2)cc1 | 2 nM | > 30 min | 26 min | – | Activity (Mus musculus [3]): Active; Activity (Mus musculus [4]): Active; Activity (Mus musculus [5]): Active; Activity (MDA-MB-361 [6]): Active; Activity (MDA-MB-361 [7]): Active; Activity (Mus musculus [8]): Non-toxic; Activity (Mus musculus [9]): Non-toxic
4 | CNC(=O)Nc1ccc(-c2nc(N3CC4CCC(C3)O4)c3cnn([C@H]4CC[C@@H](O)CC4)c3n2)cc1 | 20 nM | > 30 min | > 30 min | 0.3 nM | –
5 | CNC(=O)Nc1ccc(-c2nc(N3CC4CCC(C3)O4)c3cnn(CCO)c3n2)cc1 | 650 nM | – | – | – | –
6 | CCn1ncc2c(N3CC4CCC(C3)O4)nc(-c3ccc(NC(=O)NC)cc3)nc21 | 70 nM | > 30 min | – | 0.74 nM | –
7 | CNC(=O)Nc1ccc(-c2nc(N3CC4CCC(C3)O4)c3cnn(C4CCC(=O)CC4)c3n2)cc1 | 32 nM | 20 min | 10 min | – | –
8 | O=C(Nc1ccccc1)Nc1ccc(-c2nc(N3CC4CCC(C3)O4)c3cnn(C4CCC5(CC4)OCCO5)c3n2)cc1 | 4 nM | > 30 min | 13 min | 0.16 nM | –
9 | O=C(Nc1ccncc1)Nc1ccc(-c2nc(N3CC4CCC(C3)O4)c3cnn(C4CCC5(CC4)OCCO5)c3n2)cc1 | 1 nM | > 30 min | 13 min | 0.12 nM | –
10 | O=C(NCCF)Nc1ccc(-c2nc(N3CC4CCC(C3)O4)c3cnn(C4CCC5(CC4)OCCO5)c3n2)cc1 | 1 nM | > 30 min | 16 min | 0.22 nM | –
11 | CNC(=O)Nc1ccc(-c2nc(N3CC4CCC(C3)O4)c3cnn([C@H]4CC[C@@H](OC)CC4)c3n2)cc1 | 1 nM | 17 min | – | – | –
12 | CNC(=O)Nc1ccc(-c2nc(N3CC4CCC(C3)O4)c3cnn(C4CCN(C(=O)OC)CC4)c3n2)cc1 | 26 nM | > 30 min | – | – | –
13 | O=C(Nc1ccc(-c2nc(N3CC4CCC(C3)O4)c3cnn(C4CCC5(CC4)OCCO5)c3n2)cc1)Nc1cccnc1 | 1 nM | > 30 min | 13 min | 0.12 nM | –
14 | CNC(=O)Nc1ccc(-c2nc(N3CC4CCC(C3)O4)c3cnn(C4CCN(C(=O)OC(C)C)CC4)c3n2)cc1 | 6 nM | 21 min | – | 0.19 nM | –
15 | CNC(=O)Nc1ccc(-c2nc(N3CC4CCC(C3)O4)c3cnn([C@H]4CC[C@H](O)CC4)c3n2)cc1 | 20 nM | > 30 min | > 30 min | 0.24 nM | –
16 | CNC(=O)Nc1ccc(-c2nc(N3CC4CCC(C3)O4)c3cnn([C@H]4CC[C@H](OC)CC4)c3n2)cc1 | 2 nM | > 30 min | 15 min | 0.38 nM | –
17 | O=C(Nc1ccc(-c2nc(N3CC4CCC(C3)O4)c3cnn(C4CCC5(CC4)OCCO5)c3n2)cc1)NC1CC1 | 2 nM | 25 min | 9 min | – | –
18 | CNC(=O)Nc1ccc(-c2nc(N3CC4CCC(C3)O4)c3cnn(CCN(C)C)c3n2)cc1 | 400 nM | 5 min | – | – | –
19 | CNC(=O)Nc1ccc(-c2nc(N3CC4CCC(C3)O4)c3cnn(C(C)C)c3n2)cc1 | 5 nM | > 30 min | 12 min | 0.12 nM | –
20 | CNC(=O)Nc1ccc(-c2nc(N3CC4CCC(C3)O4)c3cnn(C4CCN(C(=O)OC(C)(C)C)CC4)c3n2)cc1 | 27 nM | 11 min | – | 0.26 nM | –
21 | CNC(=O)Nc1ccc(-c2nc(N3CC4CCC(C3)O4)c3cnn(CC(F)(F)F)c3n2)cc1 | 38 nM | > 30 min | 5 min | – | –
22 | CNC(=O)Nc1ccc(-c2nc(N3CC4CCC(C3)O4)c3cnn(C)c3n2)cc1 | 170 nM | > 30 min | – | 1.34 nM | –
23 | CNC(=O)Nc1ccc(-c2nc(N3CC4CCC(C3)O4)c3cnn(C4CCC(OC)(OC)CC4)c3n2)cc1 | 2 nM | 15 min | 30 min | – | –
